Measured values: the supplement of paper PMC11451515

System: NOMO1
Assay: cell viability relative to DMSO control; higher = less cytotoxic
Conditions: 48 h
Procedure, shortened: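 Library compounds in DMSO were pin-dosed in an 11-point threefold series (47 μM to 0.79 nM) onto leukemia cells in 1536-well plates (5 μl). Plates held 500 cells/well of NOMO1 or SEM or 1000 cells/well of P12-Ichikawa, each adapted for at least four passages in each medium. Luminescence was read with CellTiter-Glo One after 48 h at 37°C. Viability means the per-plate percentage relative to DMSO wells, using cell-free wells as background.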

[1] = HPLM + 10% dialyzed FBS, 0.000781 µM
[2] = HPLM + 10% dialyzed FBS, 0.00234 µM
[3] = HPLM + 10% dialyzed FBS, 0.00702 µM
[4] = HPLM + 10% dialyzed FBS, 0.0211 µM
[5] = HPLM + 10% dialyzed FBS, 0.0632 µM
[6] = HPLM + 10% dialyzed FBS, 0.19 µM
[7] = HPLM + 10% dialyzed FBS, 0.569 µM
[8] = HPLM + 10% dialyzed FBS, 1.71 µM
[9] = HPLM + 10% dialyzed FBS, 5.12 µM
[10] = HPLM + 10% dialyzed FBS, 15.4 µM
[11] = HPLM + 10% dialyzed FBS, 46.1 µM
[12] = RPMI 5 mM glucose + 10% FBS, 0.000781 µM
[13] = RPMI 5 mM glucose + 10% FBS, 0.00234 µM
[14] = RPMI 5 mM glucose + 10% FBS, 0.00702 µM
[15] = RPMI 5 mM glucose + 10% FBS, 0.0211 µM
[16] = RPMI 5 mM glucose + 10% FBS, 0.0632 µM
[17] = RPMI 5 mM glucose + 10% FBS, 0.19 µM
[18] = RPMI 5 mM glucose + 10% FBS, 0.569 µM
[19] = RPMI 5 mM glucose + 10% FBS, 1.71 µM
[20] = RPMI 5 mM glucose + 10% FBS, 5.12 µM
[21] = RPMI 5 mM glucose + 10% FBS, 15.4 µM
[22] = RPMI 5 mM glucose + 10% FBS, 46.1 µM
[23] = RPMI 5 mM glucose + 10% dialyzed FBS, 0.000781 µM
[24] = RPMI 5 mM glucose + 10% dialyzed FBS, 0.00234 µM
[25] = RPMI 5 mM glucose + 10% dialyzed FBS, 0.00702 µM
[26] = RPMI 5 mM glucose + 10% dialyzed FBS, 0.0211 µM
[27] = RPMI 5 mM glucose + 10% dialyzed FBS, 0.0632 µM
[28] = RPMI 5 mM glucose + 10% dialyzed FBS, 0.19 µM
[29] = RPMI 5 mM glucose + 10% dialyzed FBS, 0.569 µM
[30] = RPMI 5 mM glucose + 10% dialyzed FBS, 1.71 µM
[31] = RPMI 5 mM glucose + 10% dialyzed FBS, 5.12 µM
[32] = RPMI 5 mM glucose + 10% dialyzed FBS, 15.4 µM
[33] = RPMI 5 mM glucose + 10% dialyzed FBS, 46.1 µM

Structure (SMILES) | cell viability [1] | cell viability [2] | cell viability [3] | cell viability [4] | cell viability [5] | cell viability [6] | cell viability [7] | cell viability [8] | cell viability [9] | cell viability [10] | cell viability [11] | cell viability [12] | cell viability [13] | cell viability [14] | cell viability [15] | cell viability [16] | cell viability [17] | cell viability [18] | cell viability [19] | cell viability [20] | cell viability [21] | cell viability [22] | cell viability [23] | cell viability [24] | cell viability [25] | cell viability [26] | cell viability [27] | cell viability [28] | cell viability [29] | cell viability [30] | cell viability [31] | cell viability [32] | cell viability [33]
CNC(=O)c1ccc2cc(C3(O)CCn4cncc43)ccc2c1 (centres undefined) | 124% | 131% | 121% | 127% | 143% | 118% | 126% | 137% | 113% | 98.1% | 112% | 105% | 117% | 103% | 120% | 110% | 96.8% | 102% | 96.8% | 108% | 99.7% | 114% |  |  |  |  |  |  |  |  |  |  | 
CN(C)[S+](=O)([O-])c1ccc2c(c1)C(=Cc1cc3c([nH]1)CCCC3)C(=O)N2 | 124% | 141% | 122% | 128% | 130% | 122% | 122% | 146% | 120% | 127% | 118% | 125% | 112% | 121% | 115% | 109% | 115% | 123% | 111% | 113% | 108% | 105% |  |  |  |  |  |  |  |  |  |  | 
C[C@H]1C[C@@H]2[C@H](CC[C@@]3(C)[C@H]2CC[C@]3(OC(C)=O)C(C)=O)[C@@]\4(C)CCC(=O)\C=C14 | 95.2% | 112% | 116% | 112% | 119% | 110% | 125% | 123% | 120% | 81.3% | 118% | 103% | 103% | 103% | 101% | 99.5% | 107% | 128% | 117% | 101% | 95.9% | 103% | 86.7% | 98.7% | 109% | 88.5% | 101% | 98.8% | 104% | 98% | 103% | 88.7% | 112%
Cc1nn(Cc2ccccc2Cl)c(C)c1CN(C)CC(O)COc1ccc(Cl)cc1 (centres undefined) | 106% | 101% | 98% | 97.7% | 99.7% | 103% | 108% | 106% | 85.8% | 83.1% | 22.5% | 100% | 92.9% | 89.1% | 90.4% | 90.5% | 94.1% | 99.5% | 93.7% | 90.8% | 85.6% | 34.5% | 94.7% | 101% | 110% | 101% | 106% | 99.4% | 100% | 94.4% | 83.9% | 75.3% | 27.2%
C[C@](O)(CS(=O)(=O)c1ccc(F)cc1)C(=O)Nc1ccc(C#N)c(C(F)(F)F)c1 | 106% | 100% | 111% | 121% | 126% | 128% | 104% | 123% | 115% | 116% | 134% | 103% | 108% | 128% | 140% | 133% | 141% | 134% | 128% | 126% | 133% | 137% | 112% | 119% | 132% | 135% | 127% | 124% | 129% | 131% | 129% | 120% | 131%
CN[C@H]1CCC2=CC(=C(OC)C(=C2C/3=C/C=C(OC)\C(=O)/C=C13)OC)OC | 119% | 96% | 75.2% | 30.1% | 32.9% | 38.4% | 43.5% | 40.9% | 31.4% | 33.9% | 25.8% | 120% | 109% | 90.7% | 22.8% | 22.3% | 24.5% | 25.4% | 22.4% | 21.1% | 17.1% | 10.4% | 108% | 97.1% | 102% | 23.5% | 31.9% | 28.3% | 27.9% | 28.7% | 23.1% | 21.9% | 14.3%
CCOC(=O)c1ccc(OC(=O)CCCCCNC(=N)N)cc1 | 126% | 115% | 122% | 116% | 137% | 128% | 127% | 84.6% | 91.8% | 62.4% | 55% | 117% | 119% | 124% | 114% | 131% | 128% | 114% | 132% | 77.3% | 83% | 104% | 116% | 110% | 135% | 134% | 114% | 142% | 137% | 154% | 85.7% | 81.8% | 91.2%
